Data: PubChem BioAssay AID1259411 (Chemical Carcinogenesis Research Information System (CCRIS), 2018)
Active and inactive are the calls of the source. No rule for the calls is given here.

System: rodent carcinogenicity bioassays, tumor incidence
Assay: CCRIS carcinogenicity studies
Procedure, shortened: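 NCI-built, expert-reviewed records of carcinogenicity and related test outcomes (mutagenicity, tumor promotion/inhibition) compiled from published and report sources, historical span 1985-2011, not updated.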

## C1=CC2OC2C=C1 (stereo unspecified)
Species: MOUSE, Strain/Sex: SWISS/FEMALE, Route: INTRAPERITONEAL, Dose: 0, 7.4, 18.6 UMOL ADMINISTERED AS 3 UNEQUAL DOSES (1/7, 2/7, AND 4/7 OF THE TOTAL DOSE) OVER A 2-WK PERIOD (STUDY DURATI, Dose: 0, 7.4, 18.6 UMOL ADMINISTERED AS 3 UNEQUAL DOSES (1/7, 2/7, AND 4/7 OF THE TOTAL DOSE) OVER A 2-WK PERIOD (STUDY DURATI
  carcinogen call: inactive; negative
Species: MOUSE, Strain/Sex: SWISS/MALE, Route: INTRAPERITONEAL, Dose: 0, 7.4, 18.6 UMOL ADMINISTERED AS 3 UNEQUAL DOSES (1/7, 2/7, AND 4/7 OF THE TOTAL DOSE) OVER A 2-WK PERIOD (STUDY DURATI, Dose: 0, 7.4, 18.6 UMOL ADMINISTERED AS 3 UNEQUAL DOSES (1/7, 2/7, AND 4/7 OF THE TOTAL DOSE) OVER A 2-WK PERIOD (STUDY DURATI
  carcinogen call: inactive; negative

## O=NN1CCCC[C@H]1c1cccnc1
Species: MOUSE, Strain/Sex: STRAIN-A/FEMALE, Route: INTRAPERITONEAL, Dose: 0, 100 UMOL TOTAL DOSE ADMINISTERED IN SUBDOSES 3/WK FOR 7 WK (STUDY DURATION: 37 WK), Tumor Site: Type of Lesion: LUNG: TUMOR
  carcinogen call: active; positive

## COC(=O)COc1ccc(Cl)cc1
Species: NEWT, Route: IMMERSION, Dose: 0, 100, 200, 400 PPM 4 D/WK FOR 12 MO (STUDY DURATION: 24 MO), Dose: 0, 100, 200, 400 PPM 4 D/WK FOR 12 MO (STUDY DURATION: 24 MO)
  carcinogen call: inactive; negative

## CCOP(=S)(OCC)SC1OCCOC1SP(=S)(OCC)OCC (stereo unspecified)
Species: MOUSE, Strain/Sex: B6C3F1/FEMALE, Route: ORAL, Dose: 0, 467, 935 PPM IN DIET, TWA, Dose: 0, 467, 935 PPM IN DIET, TWA
  carcinogen call: inactive; negative
Species: MOUSE, Strain/Sex: B6C3F1/MALE, Route: ORAL, Dose: 0, 284, 567 PPM IN DIET, TWA, Dose: 0, 284, 567 PPM IN DIET, TWA
  carcinogen call: inactive; negative
Species: RAT, Strain/Sex: OSBORNE-MENDEL/FEMALE, Route: ORAL, Dose: 0, 45, 90 PPM IN DIET, TWA, Dose: 0, 45, 90 PPM IN DIET, TWA
  carcinogen call: inactive; negative
Species: RAT, Strain/Sex: OSBORNE-MENDEL/MALE, Route: ORAL, Dose: 0, 90, 180 PPM IN DIET, TWA, Dose: 0, 90, 180 PPM IN DIET, TWA
  carcinogen call: inactive; negative

## COc1cc2c(c3oc(=O)c4c(c13)CCC4=O)[C@@H]1CCO[C@@H]1O2
Species: HUMAN, Route: ORAL, Tumor Site: Type of Lesion: LIVER
  carcinogen call: active; positive
Species: RAT, Route: ORAL, Tumor Site: Type of Lesion: LIVER
  carcinogen call: active; positive

## Cc1ccc(S(=O)(=O)Oc2ccc(N=Nc3ccc(-c4ccc(N=Nc5c(O)ccc6cc(S(=O)(=O)O)cc(S(=O)(=O)O)c56)c(C)c4)cc3C)cc2)cc1
Species: RAT, Strain/Sex: F344/FEMALE, Route: ORAL, Dose: 0, 150, 300, 600 PPM IN DRINKING WATER 7 D/WK FOR 104 WK (STUDY DURATION: 104 WK), Dose: 0, 150, 300, 600 PPM IN DRINKING WATER 7 D/WK FOR 104 WK (STUDY DURATION: 104 WK), Tumor Site: Type of Lesion: CLITORAL GLAND: ADENOMA OR CARCINOMA, LIVER: NEOPLASTIC NODULE OR HEPATOCELLULAR CARCINOMA, LUNG: ALVEOLAR/BRONCHIOLAR A, Tumor Site: Type of Lesion: CLITORAL GLAND: ADENOMA OR CARCINOMA, LIVER: NEOPLASTIC NODULE OR HEPATOCELLULAR CARCINOMA, LUNG: ALVEOLAR/BRONCHIOLAR A
  carcinogen call: active; positive
Species: RAT, Strain/Sex: F344/MALE, Route: ORAL, Dose: 0, 70, 150, 300 PPM IN DRINKING WATER 7 D/WK FOR 104 WK (STUDY DURATION: 104 WK), Dose: 0, 70, 150, 300 PPM IN DRINKING WATER 7 D/WK FOR 104 WK (STUDY DURATION: 104 WK), Tumor Site: Type of Lesion: LIVER: NEOPLASTIC NODULE OR HEPATOCELLULAR CARCINOMA, SKIN: BASAL CELL ADENOMA, BASAL CELL CARCINOMA, KERATOACANTHOMA, S
  carcinogen call: active; positive

## C=CF
Species: MOUSE, Strain/Sex: SWISS/FEMALE, Route: INHALATION, Dose: 0, 25, 250, 2500 PPM 6 HR/D 5 D/WK FOR 18 MO (STUDY DURATION: 18 MO), Dose: 0, 25, 250, 2500 PPM 6 HR/D 5 D/WK FOR 18 MO (STUDY DURATION: 18 MO), Tumor Site: Type of Lesion: LUNG: ADENOMA, LIVER: HEMANGIOSARCOMA, MAMMARY GLAND: TUMOR, Tumor Site: Type of Lesion: LUNG: ADENOMA, LIVER: HEMANGIOSARCOMA, MAMMARY GLAND: TUMOR
  carcinogen call: active; positive
Species: MOUSE, Strain/Sex: SWISS/MALE, Route: INHALATION, Dose: 0, 25, 250, 2500 PPM 6 HR/D 5 D/WK FOR 18 MO (STUDY DURATION: 18 MO), Dose: 0, 25, 250, 2500 PPM 6 HR/D 5 D/WK FOR 18 MO (STUDY DURATION: 18 MO), Tumor Site: Type of Lesion: LUNG: ADENOMA, LIVER: HEMANGIOSARCOMA
  carcinogen call: active; positive
Species: RAT, Strain/Sex: SPRAGUE-DAWLEY/FEMALE, Route: INHALATION, Dose: 0, 25, 250, 2500 PPM 6 HR/D 5 D/WK FOR 2 YR (STUDY DURATION: 2 YR), Dose: 0, 25, 250, 2500 PPM 6 HR/D 5 D/WK FOR 2 YR (STUDY DURATION: 2 YR), Tumor Site: Type of Lesion: LIVER: HEMANGIOSARCOMA, ADENOMA OR CARCINOMA, ZYMBAL'S GLAND: TUMOR
  carcinogen call: active; positive
Species: RAT, Strain/Sex: SPRAGUE-DAWLEY/MALE, Route: INHALATION, Dose: 0, 25, 250, 2500 PPM 6 HR/D 5 D/WK FOR 2 YR (STUDY DURATION: 2 YR), Dose: 0, 25, 250, 2500 PPM 6 HR/D 5 D/WK FOR 2 YR (STUDY DURATION: 2 YR), Tumor Site: Type of Lesion: LIVER: HEMANGIOSARCOMA, ZYMBAL'S GLAND: TUMOR
  carcinogen call: active; positive

## Cn1cc(-c2ccccc2)c(=O)c(-c2cccc(C(F)(F)F)c2)c1
Species: Mouse, Strain/Sex: ICR/Female (60?/Group), Route: Oral, Dose: 0, 33, 100, 330 ppm (0; 4.0; 12.3; 34.5 mg/kg/day) of 97.2-97.8% fluridone in diet for 2 yr, study duration 2 yr, Dose: 0, 33, 100, 330 ppm (0; 4.0; 12.3; 34.5 mg/kg/day) of 97.2-97.8% fluridone in diet for 2 yr, study duration 2 yr
  carcinogen call: inactive; negative. (possible increased incidence of skin fibrosarcomas in high dose femal
Species: Mouse, Strain/Sex: ICR/Male (60?/Group), Route: Oral, Dose: 0, 33, 100, 330 ppm (0; 3.5; 10.9; 30.7 mg/kg/day) of 97.2-97.8% fluridone in diet for 2 yr, study duration 2 yr, Dose: 0, 33, 100, 330 ppm (0; 3.5; 10.9; 30.7 mg/kg/day) of 97.2-97.8% fluridone in diet for 2 yr, study duration 2 yr
  carcinogen call: inactive; negative
Species: Rat, Strain/Sex: Fischer 344/Female (60/Group), Route: Oral, Dose: 0, 200, 650, 2000 ppm of 97.2-97.8% fluridone in diet for 2 yr, study duration 2 yr, Dose: 0, 200, 650, 2000 ppm of 97.2-97.8% fluridone in diet for 2 yr, study duration 2 yr
  carcinogen call: inactive; negative
Species: Rat, Strain/Sex: Fischer 344/Male (60/Group), Route: Oral, Dose: 0, 200, 650, 2000 ppm of 97.2-97.8% fluridone in diet for 2 yr, study duration 2 yr, Dose: 0, 200, 650, 2000 ppm of 97.2-97.8% fluridone in diet for 2 yr, study duration 2 yr
  carcinogen call: inactive; negative

## CCN(COC(C)=O)N=O
Species: RAT, Strain/Sex: F344/FEMALE, Route: SUBCUTANEOUS, Dose: 5.5 MG/KG 1/WK FOR 10 WK, Tumor Site: Type of Lesion: INJECTION SITE: MALIGNANT FIBROUS HISTIOCYTOMA, LUNG: ADENOMA, ADENOCARCINOMA, SQUAMOUS CELL CARCINOMA
  carcinogen call: active; positive
Species: RAT, Strain/Sex: F344/MALE, Route: SUBCUTANEOUS, Dose: 5.5 MG/KG 1/WK FOR 10 WK, Tumor Site: Type of Lesion: INJECTION SITE: MALIGNANT FIBROUS HISTIOCYTOMA, LUNG: ADENOMA, ADENOCARCINOMA, SQUAMOUS CELL CARCINOMA, THYROID GLAND: C, Tumor Site: Type of Lesion: INJECTION SITE: MALIGNANT FIBROUS HISTIOCYTOMA, LUNG: ADENOMA, ADENOCARCINOMA, SQUAMOUS CELL CARCINOMA, THYROID GLAND: C
  carcinogen call: active; positive

## O=[N+]([O-])c1cc(N(CCO)CCO)ccc1NCCO
Species: MOUSE, Strain/Sex: B6C3F1/FEMALE, Route: ORAL, Dose: 0, 10000, 20000 PPM IN DIET FOR 104 WK, Dose: 0, 10000, 20000 PPM IN DIET FOR 104 WK
  carcinogen call: inactive; negative
Species: MOUSE, Strain/Sex: B6C3F1/MALE, Route: ORAL, Dose: 0, 5000, 10000 PPM IN DIET FOR 104 WK, Dose: 0, 5000, 10000 PPM IN DIET FOR 104 WK
  carcinogen call: inactive; negative
Species: RAT, Strain/Sex: F344/FEMALE, Route: ORAL, Dose: 0, 10000, 20000 PPM IN DIET FOR 103 WK, Dose: 0, 10000, 20000 PPM IN DIET FOR 103 WK
  carcinogen call: inactive; negative
Species: RAT, Strain/Sex: F344/MALE, Route: ORAL, Dose: 0, 5000, 10000 PPM IN DIET FOR 103 WK, Dose: 0, 5000, 10000 PPM IN DIET FOR 103 WK
  carcinogen call: inactive; negative
